Values of other authors in patent US20070037707A1, “Plant growth regulator formulations” (HELENA HOLDING COMPANY, priority 2005, published 2007).

Experiments:
organically grown cotton = conditions: used alone; compared with conventional chemistry like (2-chloroethyl) phosphonic acid
[1] = not given; remark: listed apart in the source

| SMILES | effectiveness as cotton defoliant (organically grown cotton) | pH of the pure product (according to the MSDS sheet for a formulated product) | pH range in which stable (at higher pH decomposes and liberates ethylene, Pesticide Manual) | water solubility [1] |
| --- | --- | --- | --- | --- |
| O=C(O)CC(O)(CC(=O)O)C(=O)O [Citric acid] | not as effective | – | – | – |
| O=P(O)(O)CCCl [(2-chloroethyl)phosphonic acid] | – | 1.7 | below 3.5 | water soluble |
